Each structure is given as a SMILES string. pIC50: −log10 of the molar value.

In the assay the target is HDAC2 (Homo sapiens, UniProt Q92769). The assay is described as follows: HDAC2 fluorescence inhibition assay (tBoc-Lys(Ac)-AMC).
HDAC2, sequence (Q92769 with tags, fused parts or gaps): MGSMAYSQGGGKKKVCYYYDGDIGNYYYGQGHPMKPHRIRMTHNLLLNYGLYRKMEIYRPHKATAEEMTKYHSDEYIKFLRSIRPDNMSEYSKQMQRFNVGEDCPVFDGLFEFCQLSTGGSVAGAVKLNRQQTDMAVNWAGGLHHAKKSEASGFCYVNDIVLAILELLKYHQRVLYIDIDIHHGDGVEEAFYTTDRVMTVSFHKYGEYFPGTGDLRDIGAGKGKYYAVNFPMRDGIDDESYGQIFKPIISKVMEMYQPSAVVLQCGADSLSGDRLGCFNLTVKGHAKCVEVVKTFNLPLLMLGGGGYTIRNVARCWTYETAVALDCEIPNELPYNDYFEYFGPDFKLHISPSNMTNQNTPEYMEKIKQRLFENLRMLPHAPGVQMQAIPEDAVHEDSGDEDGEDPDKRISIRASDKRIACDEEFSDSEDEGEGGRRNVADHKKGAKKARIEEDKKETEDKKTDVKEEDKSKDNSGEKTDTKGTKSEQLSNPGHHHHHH
Take `CN(C)CCNC(=O)c1cnn(Cc2ccc(C(=O)Nc3ccccc3N)cc2)c1` [Example 140, 1-(4-(2-aminophenylcarbamoyl)benzyl)-N-(2-(dimethylamino)ethyl)-1H-pyrazole-4-carboxamide]: the pIC50 is 7.00 to 7.30.

`Cc1nn(Cc2ccc(C(=O)Nc3ccccc3N)cc2)c2cccc(F)c12` [Example 54, N-(2-aminophenyl)-4-((4-fluoro-3-methyl-1H-indazol-1-yl)methyl)benzamide] had a pIC50 of 6.30 to 7.00. The figure for `CC(=O)Nc1ccc2c(cnn2Cc2ccc(C(=O)Nc3ccccc3N)cc2)c1` [Example 3, 4-((5-acetamido-1H-indazol-1-yl)methyl)-N-(2-aminophenyl)benzamide] is at least 7.30.

With `Nc1ccccc1NC(=O)c1ccc(Cn2cc(C(=O)NCCN3CCNCC3)cn2)cc1` [Example 103, 1-(4-(2-aminophenylcarbamoyl)benzyl)-N-(2-(piperazin-1-yl)ethyl)-1H-pyrazole-4-carboxamide], the pIC50 was at least 7.30. The figure for `CC(c1ccc(C(=O)Nc2ccccc2N)cc1)n1cc2ccccc2n1` (stereo not shown) [Example 109, 4-(1-(2H-indazol-2-yl)ethyl)-N-(2-aminophenyl)benzamide] is 7.00 to 7.30; for `Nc1ccccc1NC(=O)c1ccc(Cn2nc3ccccc3n2)cc1` [Example 101, 4-((2H-benzo[d][1,2,3]triazol-2-yl)methyl)-N-(2-aminophenyl)benzamide] it is 7.00 to 7.30; for `Cc1c2cc(F)ccc2nn1Cc1ccc(C(=O)Nc2ccccc2N)cc1` [Example 71, N-(2-aminophenyl)-4-((5-fluoro-3-methyl-2H-indazol-2-yl)methyl)benzamide] it is 7.00 to 7.30. The figure for `COc1ccc2c(cnn2Cc2ccc(C(=O)Nc3ccccc3N)cc2)c1` [Example 78, N-(2-aminophenyl)-4-((5-methoxy-1H-indazol-1-yl)methyl)benzamide] is at least 7.30.

Take `Cc1c2ccccc2nn1Cc1ccc(C(=O)Nc2ccccc2N)cc1` [Example 29, N-(2-Aminophenyl)-4-((3-methyl-2H-indazol-2-yl)methyl)benzamide]: the pIC50 is 7.00 to 7.30. The result for `Nc1ccccc1NC(=O)c1ccc(CNc2n[nH]c3ccccc23)cc1` [Example 30, 4-((1H-indazol-3-ylamino)methyl)-N-(2-aminophenyl)benzamide] reads 7.00 to 7.30; that for `CN(C)C(=O)c1cnn(Cc2ccc(C(=O)Nc3ccccc3N)cc2)c1` [Example 136, 1-(4-(2-aminophenylcarbamoyl)benzyl)-N,N-dimethyl-1H-pyrazole-4-carboxamide], 6.30 to 7.00; that for `CNC(=O)c1cnn(Cc2ccc(C(=O)Nc3ccccc3N)cc2)c1` [Example 134, 1-(4-(2-aminophenylcarbamoyl)benzyl)-N-methyl-1H-pyrazole-4-carboxamide], 7.00 to 7.30.

Turning to `Nc1ccccc1NC(=O)c1ccc(Cn2cc(C(=O)NCCCO)cn2)cc1` [Example 153, 1-(4-(2-aminophenylcarbamoyl)benzyl)-N-(3-hydroxypropyl)-1H-pyrazole-4-carboxamide], the pIC50 was at least 7.30. `Cc1nn(Cc2ccc(C(=O)Nc3ccccc3N)cc2)c2cc(F)ccc12` [Example 68, N-(2-aminophenyl)-4-((6-fluoro-3-methyl-1H-indazol-1-yl)methyl)benzamide] showed a pIC50 of 7.00 to 7.30.

With `Nc1ccccc1NC(=O)c1ccc(Cn2nccc2N)cc1` [Example 132, 4-((5-amino-1H-pyrazol-1-yl)methyl)-N-(2-aminophenyl)benzamide], the pIC50 is at most 6.30. The result for `CC(=O)Nc1ccc2nn(Cc3ccc(C(=O)Nc4ccccc4N)cc3)c(C)c2c1` [Example 106, 4-((5-acetamido-3-methyl-2H-indazol-2-yl)methyl)-N-(2-aminophenyl)benzamide] reads at least 7.30; that for `Cc1ccc2nn(Cc3ccc(C(=O)Nc4ccccc4N)cc3)c(C)c2c1` [Example 81, N-(2-aminophenyl)-4-((3,5-dimethyl-2H-indazol-2-yl)methyl)benzamide], 7.00 to 7.30. The figure for `Nc1ccc2nn(Cc3ccc(C(=O)Nc4ccccc4N)cc3)cc2c1` [Example 9, 4-((5-amino-2H-indazol-2-yl)methyl)-N-(2-aminophenyl)benzamide] is 7.00 to 7.30. The result for `Nc1ccccc1NC(=O)c1ccc(Cn2cc(C(=O)NCc3ccccn3)cn2)cc1` [Example 126, 1-(4-(2-aminophenylcarbamoyl)benzyl)-N-(pyridin-2-ylmethyl)-1H-pyrazole-4-carboxamide] reads at least 7.30; that for `Nc1ccc(-c2ccccc2)cc1NC(=O)c1ccc(Cn2cc3cccnc3n2)cc1` [Example 26, N-(4-Amino-biphenyl-3-yl)-4-pyrazolo[3,4-b]pyridin-2-ylmethyl-benzamide], at least 7.30; that for `Nc1ccc2c(cnn2Cc2ccc(C(=O)Nc3ccccc3N)cc2)c1` [Example 7, 4-((5-amino-1H-indazol-1-yl)methyl)-N-(2-aminophenyl)benzamide], at least 7.30. `COc1ccc2nn(Cc3ccc(C(=O)Nc4ccccc4N)cc3)cc2c1` [Example 79, N-(2-aminophenyl)-4-((5-methoxy-2H-indazol-2-yl)methyl)benzamide]: the pIC50 was at least 7.30. The figure for `COc1cccc2c1cnn2Cc1ccc(C(=O)Nc2ccccc2N)cc1` [Example 85, N-(2-aminophenyl)-4-((4-methoxy-1H-indazol-1-yl)methyl)benzamide] is at least 7.30; for `COc1ccc2c(C)n(Cc3ccc(C(=O)Nc4cc(-c5cccs5)ccc4N)cc3)nc2c1` [Example 116, N-(2-amino-5-(thiophen-2-yl)phenyl)-4-((6-methoxy-3-methyl-2H-indazol-2-yl)methyl)benzamide] it is 7.00 to 7.30. The figure for `Cc1c2cccc(C(F)(F)F)c2nn1Cc1ccc(C(=O)Nc2ccccc2N)cc1` [Example 91, N-(2-aminophenyl)-4-((3-methyl-7-(trifluoromethyl)-2H-indazol-2-yl)methyl)benzamide] is 7.00 to 7.30; for `Cc1ccc2c(c1)c(C)nn2Cc1ccc(C(=O)Nc2ccccc2N)cc1` [Example 80, N-(2-aminophenyl)-4-((3,5-dimethyl-1H-indazol-1-yl)methyl)benzamide] it is 7.00 to 7.30; for `CC(C)NC(=O)c1cnn(Cc2ccc(C(=O)Nc3ccccc3N)cc2)c1` [Example 137, 1-(4-(2-aminophenylcarbamoyl)benzyl)-N-isopropyl-1H-pyrazole-4-carboxamide] it is at least 7.30. The figure for `Nc1ccccc1NC(=O)c1ccc(Cn2cc3ccccc3n2)s1` [Example 19, 5-((2H-Indazol-2-yl)methyl)-N-(2-aminophenyl)thiophene-2-carboxamide] is 6.30 to 7.00; for `Nc1ccccc1NC(=O)c1ccc(Cn2cc(C(=O)NCc3ccncc3)cn2)cc1` [Example 146, 1-(4-(2-aminophenylcarbamoyl)benzyl)-N-(pyridin-4-ylmethyl)-1H-pyrazole-4-carboxamide] it is at least 7.30. Compound `Nc1ccccc1NC(=O)c1ccc(Cn2cc(C(=O)NCc3cccnc3)cn2)cc1` [Example 145, 1-(4-(2-aminophenylcarbamoyl)benzyl)-N-(pyridin-3-ylmethyl)-1H-pyrazole-4-carboxamide] gave a pIC50 of at least 7.30. For `Nc1ccccc1NC(=O)c1ccc(Cn2cc(C(=O)O)cn2)cc1` [Example 122, 1-(4-(2-aminophenylcarbamoyl)benzyl)-1H-pyrazole-4-carboxylic acid], the negative-log IC50 (pIC50) is at most 6.30. The result for `Nc1ccccc1NC(=O)c1ccc(Cn2cc3c(Cl)cccc3n2)cc1` [Example 43, N-(2-aminophenyl)-4-((4-chloro-2H-indazol-2-yl)methyl)benzamide] reads at least 7.30; that for `Nc1ccccc1NC(=O)c1ccc(Cn2cc(C(=O)NCCO)cn2)cc1` [Example 143, 1-(4-(2-aminophenylcarbamoyl)benzyl)-N-(2-hydroxyethyl)-1H-pyrazole-4-carboxamide], 7.00 to 7.30. The result for `COc1cccc2cn(Cc3ccc(C(=O)Nc4ccccc4N)cc3)nc12` [Example 82, N-(2-aminophenyl)-4-((7-methoxy-2H-indazol-2-yl)methyl)benzamide] reads 7.00 to 7.30; that for `C[C@H](c1ccc(C(=O)Nc2ccccc2N)cc1)n1cc2ccccc2n1` [Example 50, (R)-4-(1-(2H-indazol-2-yl)ethyl)-N-(2-aminophenyl)benzamide], 7.00 to 7.30. The figure for `Nc1ccccc1NC(=O)c1ccc(Cn2cc(C(=O)NCC3CC3)cn2)cc1` [Example 139, 1-(4-(2-aminophenylcarbamoyl)benzyl)-N-(cyclopropylmethyl)-1H-pyrazole-4-carboxamide] is 7.00 to 7.30; for `COC(=O)Nc1ccc2nn(Cc3ccc(C(=O)Nc4ccccc4N)cc3)cc2c1` [Example 12, Methyl 2-(4-((2-aminophenyl)carbamoyl)benzyl)-2H-indazol-5-ylcarbamate] it is at least 7.30. `Nc1ccccc1NC(=O)c1ccc(Cn2nc(Cl)c3ccccc32)cc1` [Example 60, N-(2-aminophenyl)-4-((3-chloro-1H-indazol-1-yl)methyl)benzamide] gave a pIC50 of 7.00 to 7.30. The result for `COCCOC(=O)Nc1ccc2c(cnn2Cc2ccc(C(=O)Nc3ccccc3N)cc2)c1` [Example 13, 2-Methoxyethyl 1-(4-((2-aminophenyl)carbamoyl)benzyl)-1H-indazol-5-ylcarbamate] reads at least 7.30; that for `COc1ccc2cn(Cc3ccc(C(=O)Nc4ccccc4N)cc3)nc2c1` [Example 59, N-(2-aminophenyl)-4-((6-methoxy-2H-indazol-2-yl)methyl)benzamide], at least 7.30; that for `Nc1ccccc1NC(=O)c1ccc(Cn2ncc3c(C(F)(F)F)cccc32)cc1` [Example 117, N-(2-aminophenyl)-4-((4-(trifluoromethyl)-1H-indazol-1-yl)methyl)benzamide], 7.00 to 7.30. The figure for `Nc1ccccc1NC(=O)c1ccc(Cn2nc(-c3ccccc3)c3ccccc32)cc1` [Example 76, N-(2-aminophenyl)-4-((3-phenyl-1H-indazol-1-yl)methyl)benzamide] is 7.00 to 7.30; for `COc1cccc2cnn(Cc3ccc(C(=O)Nc4ccccc4N)cc3)c12` [Example 84, N-(2-aminophenyl)-4-((7-methoxy-1H-indazol-1-yl)methyl)benzamide] it is 6.30 to 7.00.

What is called pIC50 is −log10 of the IC50, conventionally taken in molar units. A higher pIC50 goes with a low IC50.

The record behind these values is patent US7732475B2, “Histone deacetylase inhibitors” (Takeda San Diego, Inc., priority 2005, dated 2010).
